{"source": "patent US11931465B2", "about": "“Functionalized Prussian blue nanoparticles, combination Prussian blue nanoparticle-based nano-immunotherapy and applications thereof” (Children's National Medical Center, priority 2016, dated 2024)", "key": {"[1]": {"test_system": "M2 MPNST tumors", "assay": "Syngeneic subcutaneous mouse model of MPNST", "assay_type": "in vivo", "conditions": "PD901 5 mg/kg daily oral; PTT 50 μL 1 mg/mL PBNPs intratumoral, 1.5 W/cm^2 10 minutes, once", "procedure": "In vivo studies. 1 million M2 cells were injected into the backs of B6129SF1/J mice in 100 μL 50% phosphate buffered saline (PBS, Life Technologies, Carlsbad, CA)/50% Matrigel (Corning, Corning, NY). Treatment commenced when tumors reached 10 mm in diameter. Animals were treated in four groups: (1) Untreated (n=5): animals received no treatment, (2) PTT-treated (n=5): animals were intratumorally injected with 50 μL of 1 mg/mL PBNPs and irradiated for 10 minutes with 1.5 W/cm^2 NIR laser, (3) PD901-treated (n=5): animals were given 5 mg/kg PD901 daily by oral gavage in 0.5% hydroxypropyl methylcellulose and 0.2% Tween80, and (4) PD901 plus PTT combo-treated (n=5): animals were given both PTT and PD901 treatments as listed above. […] Tumors were measured daily by calipers. For histological analysis of the effects of the treatments, tumors were harvested eight hours post treatment (treatments described above; n=2-3 per group), processed, and stained with hematoxylin and eosin (H&E) for subsequent microscopy."}, "[2]": {"test_system": "M2 mouse MPNST cells", "assay": "CellTiter-Glo cell viability assay", "assay_type": "cell-based", "conditions": "48 h, 48 h treatment", "procedure": "Cell viability assays. M2 cells were seeded at 50,000 cells per well in 96-well cell culture plates overnight. After treatment, the cells were analyzed for viability using the ATP-based CellTiter-Glo Luminescent Cell Viability Assay (Promega, Madison, WI)."}, "[3]": {"test_system": "ERK activation (p-ERK)", "assay": "Western blot for p-ERK in M2 cells", "assay_type": "cell-based, mouse", "procedure": "Western blots. Treated M2 cells were lysed in 1×RIPA buffer [50 mM Tris-HCL (pH 7.4), 150 mM NaCl, 1% Triton X-100, 1% sodium deoxycholate, 0.1% SDS, 1 mM EDTA, complete protease inhibitor (Roche, Basel, Switzerland) and phosphatase inhibitor (Roche, Basel, Switzerland)]. Samples were analyzed by SDS-PAGE and transferred onto PVDF membranes (Millipore, Billerica, MA). The blots were then blocked in 5% non-fat milk in TBST, followed by incubation of primary antibodies at 4° C. overnight. After washing, the blots were incubated in horseradish peroxidase (HRP)-conjugated secondary antibodies at room temperature for 1 hour. Signals were detected using ECL or ECL plus (GE healthcare, Little Chalfont, United Kingdom) followed by film development. The primary antibodies used are as follows: p-ERK (1:1,000, rabbit, Cell Signaling, Danvers, MA), ERK (1:2,000, rabbit, Cell Signaling, Danvers, MA), and β-actin (1:10,000, mouse, Sigma-Aldrich, St. Louis, MO)."}, "[4]": {"test_system": "M2 mouse MPNST cells", "assay": "Flow cytometry for apoptosis/necrosis and cell cycle", "assay_type": "cell-based", "conditions": "0.1, 1 and 10 μM, 24 h", "procedure": "Flow cytometry. After the relevant treatments, M2 cells were stained with PE-Annexin V (BD Pharmingen, Franklin Lakes, NJ) and 7AAD (BD Pharmingen, Franklin Lakes, NJ). For cell cycle analysis, M2 cells were stained with propidium iodide (ThermoFisher Scientific, Carlsbad, CA) after treatment. Flow cytometry was performed on a BD FACSCalibur and analyzed with the FlowJo 7.6 software."}}, "note": "“Also recorded” adds a separate entry of the source."}
{"smiles": "O=C(NOC[C@H](O)CO)c1ccc(F)c(F)c1Nc1ccc(I)cc1F", "note": "[PD901, PD-0325901]", "values": [{"measurement": "median survival", "setting": "[1]", "value": 18, "unit": "days"}, {"measurement": "IC50", "setting": "[2]", "value": "~1000", "unit": "nM"}, {"measurement": "p-ERK expression / ERK activation", "setting": "[3]; 1 μM, 4 h or 8 h, versus vehicle", "value": "effectively blocked; also recorded: markedly decreased"}, {"measurement": "p-ERK expression", "setting": "[3]; 4 h, HIGH doses: 1.0 μM PD901, 0.05 mg/mL PBNP + 1.5 W/cm^2 laser 10 minutes", "value": "complete eradication"}, {"measurement": "mechanism of cell death", "setting": "[4]", "value": "both apoptosis (Annexin V+7AAD−) and late apoptosis/necrosis (7AAD+)"}, {"measurement": "cell cycle effect", "setting": "[4]; concentration-dependent", "value": "significant arrest of M2 cells in the G0/G1 phase"}]}
